In the test the test system is Pu19m2 (DNA, G4) AAGGGAGGGCGGCGGGACA
The test can be described thus: thermal melting. Conditions: 50 mM K+; complex ~60 °C, free unimolecular vG4 ~45 °C.

Consider `Nc1nc2c(ncn2[C@H]2C[C@H](O)[C@@H](COP(=O)(O)O)O2)c(=O)[nH]1`, for which the Tm is ~ 15 °C.

For the origin of these results see publication PMC7241120 (2020).
